Reference: the supplement of paper PMC10307832

How the values were obtained:
Assay in all cases: relative viability (nuclei count vs DMSO), 5 days (fraction); higher = more cells survive
[1] = compound: CCCS(=O)(=O)Nc1ccc(F)c(C(=O)c2c[nH]c3ncc(-c4ccc(Cl)cc4)cc23)c1F [Vemurafenib] + C[C@@H](Oc1cc(-c2cnn(C3CCNCC3)c2)cnc1N)c1c(Cl)ccc(F)c1Cl [Crizotinib] (partner 1 µM)
Outline: (§1)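 Each reported value is a median over duplicate plates. It expresses relative viability: treated-well nuclei count divided by vehicle-well nuclei count. Lung cancer cell lines in 1536-well plates were dosed by pin tool a day after seeding, alone with one drug or with a fixed anchor-drug dose plus five library-drug doses (not always all listed) in √10 steps, and nuclei were counted after 5 days.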

[2] = compound: Cc1nc(NC(=O)N2CCC[C@H]2C(N)=O)sc1-c1ccnc(C(C)(C)C(F)(F)F)c1 [Alpelisib] + CC(=O)c1c(C)c2cnc(Nc3ccc(N4CCNCC4)cn3)nc2n(C2CCCC2)c1=O [Palbociclib] (partner 0.5 µM)
Outline: as §1

[3] = compound: Cc1nc(NC(=O)N2CCC[C@H]2C(N)=O)sc1-c1ccnc(C(C)(C)C(F)(F)F)c1 [Alpelisib] + N=C(N)NC(=N)NCCc1ccccc1 [Phenformin] (partner 250 µM)
Outline: as §1

[4] = compound: Cc1nc(NC(=O)N2CCC[C@H]2C(N)=O)sc1-c1ccnc(C(C)(C)C(F)(F)F)c1 [Alpelisib] + Nc1ncn([C@H]2C[C@H](O)[C@@H](CO)O2)c(=O)n1 [Decitabine] (partner 2 µM)
Outline: as §1

Cell Line: PC-3 [JPC-3]
- relative viability ([1]; first compound 0.03162 µM): 0.91
- relative viability ([1]; first compound 0.3162 µM): 1.01
- relative viability ([1]; first compound 1 µM): 1.01
- relative viability ([2]; first compound 0.04 µM): 0.591
- relative viability ([2]; first compound 0.1265 µM): 0.556
- relative viability ([2]; first compound 0.4 µM): 0.581
- relative viability ([2]; first compound 1.265 µM): 0.521
- relative viability ([2]; first compound 4 µM): 0.559
- relative viability ([3]; first compound 0.04 µM): 0.502
- relative viability ([3]; first compound 0.1265 µM): 0.496
- relative viability ([3]; first compound 0.4 µM): 0.503
- relative viability ([3]; first compound 1.265 µM): 0.454
- relative viability ([3]; first compound 4 µM): 0.463
- relative viability ([4]; first compound 0.04 µM): 0.798
- relative viability ([4]; first compound 0.1265 µM): 0.757
- relative viability ([4]; first compound 0.4 µM): 0.887
- relative viability ([4]; first compound 1.265 µM): 0.813
- relative viability ([4]; first compound 4 µM): 0.79

Cell Line: NCI-H1648
- relative viability ([2]; first compound 0.04 µM): 0.259
- relative viability ([2]; first compound 0.1265 µM): 0.304
- relative viability ([2]; first compound 0.4 µM): 0.241
- relative viability ([2]; first compound 1.265 µM): 0.234
- relative viability ([2]; first compound 4 µM): 0.237
- relative viability ([4]; first compound 0.04 µM): 0.477
- relative viability ([4]; first compound 0.1265 µM): 0.508
- relative viability ([4]; first compound 0.4 µM): 0.353
- relative viability ([4]; first compound 1.265 µM): 0.372
- relative viability ([4]; first compound 4 µM): 0.253

Cell Line: NCI-H1651
- relative viability ([1]; first compound 0.03162 µM): 0.875
- relative viability ([1]; first compound 0.1 µM): 0.869
- relative viability ([1]; first compound 0.3162 µM): 0.806
- relative viability ([1]; first compound 1 µM): 0.795
- relative viability ([2]; first compound 0.04 µM): 0.512
- relative viability ([2]; first compound 0.1265 µM): 0.514
- relative viability ([2]; first compound 0.4 µM): 0.594
- relative viability ([2]; first compound 1.265 µM): 0.483
- relative viability ([2]; first compound 4 µM): 0.484
- relative viability ([3]; first compound 0.04 µM): 0.369
- relative viability ([3]; first compound 0.1265 µM): 0.3
- relative viability ([3]; first compound 0.4 µM): 0.33
- relative viability ([3]; first compound 1.265 µM): 0.295
- relative viability ([3]; first compound 4 µM): 0.275
- relative viability ([4]; first compound 0.04 µM): 0.625
- relative viability ([4]; first compound 0.1265 µM): 0.557
- relative viability ([4]; first compound 0.4 µM): 0.703
- relative viability ([4]; first compound 1.265 µM): 0.598
- relative viability ([4]; first compound 4 µM): 0.439

Cell Line: NCI-H596
- relative viability ([1]; first compound 0.03162 µM): 0.97
- relative viability ([1]; first compound 0.1 µM): 1.01
- relative viability ([1]; first compound 0.3162 µM): 0.992
- relative viability ([1]; first compound 1 µM): 1.09
- relative viability ([3]; first compound 0.04 µM): 0.669
- relative viability ([3]; first compound 0.1265 µM): 0.709
- relative viability ([3]; first compound 0.4 µM): 0.695
- relative viability ([3]; first compound 1.265 µM): 0.421
- relative viability ([3]; first compound 4 µM): 0.329
- relative viability ([4]; first compound 0.04 µM): 1
- relative viability ([4]; first compound 0.1265 µM): 0.954
- relative viability ([4]; first compound 0.4 µM): 1.01
- relative viability ([4]; first compound 1.265 µM): 0.699
- relative viability ([4]; first compound 4 µM): 0.61

Cell Line: HARA
- relative viability ([1]; first compound 0.03162 µM): 1.04
- relative viability ([1]; first compound 0.3162 µM): 1.09
- relative viability ([1]; first compound 1 µM): 1.07
- relative viability ([2]; first compound 0.04 µM): 0.295
- relative viability ([2]; first compound 0.1265 µM): 0.25
- relative viability ([2]; first compound 0.4 µM): 0.257
- relative viability ([2]; first compound 1.265 µM): 0.172
- relative viability ([2]; first compound 4 µM): 0.156
- relative viability ([3]; first compound 0.04 µM): 0.48
- relative viability ([3]; first compound 0.1265 µM): 0.451
- relative viability ([3]; first compound 0.4 µM): 0.555
- relative viability ([3]; first compound 1.265 µM): 0.331
- relative viability ([3]; first compound 4 µM): 0.301
- relative viability ([4]; first compound 0.04 µM): 0.387
- relative viability ([4]; first compound 0.1265 µM): 0.556
- relative viability ([4]; first compound 0.4 µM): 0.514
- relative viability ([4]; first compound 1.265 µM): 0.377
- relative viability ([4]; first compound 4 µM): 0.432

Cell Line: NCI-H727
- relative viability ([1]; first compound 0.03162 µM): 0.793
- relative viability ([1]; first compound 0.1 µM): 0.623
- relative viability ([1]; first compound 0.3162 µM): 1.2
- relative viability ([1]; first compound 1 µM): 0.954
- relative viability ([2]; first compound 0.04 µM): 0.569
- relative viability ([2]; first compound 0.1265 µM): 0.584
- relative viability ([2]; first compound 0.4 µM): 0.702
- relative viability ([2]; first compound 1.265 µM): 0.452
- relative viability ([2]; first compound 4 µM): 0.523
- relative viability ([3]; first compound 0.04 µM): 0.533
- relative viability ([3]; first compound 0.1265 µM): 0.555
- relative viability ([3]; first compound 0.4 µM): 0.498
- relative viability ([3]; first compound 1.265 µM): 0.412
- relative viability ([3]; first compound 4 µM): 0.215
- relative viability ([4]; first compound 0.04 µM): 0.973
- relative viability ([4]; first compound 0.1265 µM): 0.859
- relative viability ([4]; first compound 0.4 µM): 0.881
- relative viability ([4]; first compound 1.265 µM): 0.854
- relative viability ([4]; first compound 4 µM): 0.828

Cell Line: Calu-6
- relative viability ([1]; first compound 0.03162 µM): 0.595
- relative viability ([1]; first compound 0.1 µM): 0.808
- relative viability ([1]; first compound 0.3162 µM): 0.783
- relative viability ([1]; first compound 1 µM): 0.668

Cell Line: NCI-H1993
- relative viability ([1]; first compound 0.03162 µM): 0.906
- relative viability ([1]; first compound 0.3162 µM): 0.935
- relative viability ([1]; first compound 1 µM): 0.818
- relative viability ([2]; first compound 0.04 µM): 0.549
- relative viability ([2]; first compound 0.1265 µM): 0.637
- relative viability ([2]; first compound 0.4 µM): 0.647
- relative viability ([2]; first compound 1.265 µM): 0.501
- relative viability ([2]; first compound 4 µM): 0.465
- relative viability ([3]; first compound 0.04 µM): 0.501
- relative viability ([3]; first compound 0.1265 µM): 0.534
- relative viability ([3]; first compound 0.4 µM): 0.443
- relative viability ([3]; first compound 1.265 µM): 0.539
- relative viability ([3]; first compound 4 µM): 0.507
- relative viability ([4]; first compound 0.04 µM): 0.547
- relative viability ([4]; first compound 0.1265 µM): 0.561
- relative viability ([4]; first compound 0.4 µM): 0.592
- relative viability ([4]; first compound 1.265 µM): 0.494
- relative viability ([4]; first compound 4 µM): 0.671

Cell Line: HCC-366
- relative viability ([1]; first compound 0.03162 µM): 0.465
- relative viability ([1]; first compound 0.1 µM): 0.468
- relative viability ([1]; first compound 1 µM): 0.412
- relative viability ([2]; first compound 0.04 µM): 0.421
- relative viability ([2]; first compound 0.1265 µM): 0.356
- relative viability ([2]; first compound 0.4 µM): 0.36
- relative viability ([2]; first compound 1.265 µM): 0.247
- relative viability ([2]; first compound 4 µM): 0.162
- relative viability ([3]; first compound 0.04 µM): 0.639
- relative viability ([3]; first compound 0.1265 µM): 0.608
- relative viability ([3]; first compound 0.4 µM): 0.636
- relative viability ([3]; first compound 1.265 µM): 0.428
- relative viability ([3]; first compound 4 µM): 0.139
- relative viability ([4]; first compound 0.04 µM): 0.322
- relative viability ([4]; first compound 0.1265 µM): 0.318
- relative viability ([4]; first compound 0.4 µM): 0.327
- relative viability ([4]; first compound 1.265 µM): 0.231
- relative viability ([4]; first compound 4 µM): 0.194

Cell Line: IA-LM
- relative viability ([1]; first compound 0.03162 µM): 0.694
- relative viability ([1]; first compound 0.1 µM): 0.916
- relative viability ([1]; first compound 0.3162 µM): 1.1
- relative viability ([1]; first compound 1 µM): 0.422

Cell Line: EPLC-272H
- relative viability ([1]; first compound 0.03162 µM): 0.822
- relative viability ([1]; first compound 0.1 µM): 0.809
- relative viability ([1]; first compound 0.3162 µM): 0.89
- relative viability ([1]; first compound 1 µM): 0.841
- relative viability ([2]; first compound 0.04 µM): 0.289
- relative viability ([2]; first compound 0.1265 µM): 0.333
- relative viability ([2]; first compound 0.4 µM): 0.324
- relative viability ([2]; first compound 1.265 µM): 0.291
- relative viability ([2]; first compound 4 µM): 0.267
- relative viability ([3]; first compound 0.04 µM): 0.303
- relative viability ([3]; first compound 0.1265 µM): 0.267
- relative viability ([3]; first compound 0.4 µM): 0.351
- relative viability ([3]; first compound 1.265 µM): 0.279
- relative viability ([3]; first compound 4 µM): 0.244
- relative viability ([4]; first compound 0.04 µM): 0.337
- relative viability ([4]; first compound 0.1265 µM): 0.374
- relative viability ([4]; first compound 0.4 µM): 0.388
- relative viability ([4]; first compound 1.265 µM): 0.297
- relative viability ([4]; first compound 4 µM): 0.284
